Measured values reported in ChEMBL document CHEMBL4396928, “Discovery of Selective, Orally Bioavailable Pyrazolopyridine Inhibitors of Protein Kinase Cθ (PKCθ) That Ameliorate Symptoms of Experimental Autoimmune Encephalomyelitis” (ACS Med Chem Lett, 2019).

Columns and labels:
[1] = target: Protein kinase C theta type (Homo sapiens, UniProt Q04759); test: Inhibition of human recombinant full length His tagged PKC theta expressed in baculovirus using ERMRPRKRQGSVRRRV peptide as substrate incubated for 60 mins in presence of [33P] gammaATP by microbeta liquid scintillation counter
Sequence of Protein kinase C theta type (Q04759 whole entry): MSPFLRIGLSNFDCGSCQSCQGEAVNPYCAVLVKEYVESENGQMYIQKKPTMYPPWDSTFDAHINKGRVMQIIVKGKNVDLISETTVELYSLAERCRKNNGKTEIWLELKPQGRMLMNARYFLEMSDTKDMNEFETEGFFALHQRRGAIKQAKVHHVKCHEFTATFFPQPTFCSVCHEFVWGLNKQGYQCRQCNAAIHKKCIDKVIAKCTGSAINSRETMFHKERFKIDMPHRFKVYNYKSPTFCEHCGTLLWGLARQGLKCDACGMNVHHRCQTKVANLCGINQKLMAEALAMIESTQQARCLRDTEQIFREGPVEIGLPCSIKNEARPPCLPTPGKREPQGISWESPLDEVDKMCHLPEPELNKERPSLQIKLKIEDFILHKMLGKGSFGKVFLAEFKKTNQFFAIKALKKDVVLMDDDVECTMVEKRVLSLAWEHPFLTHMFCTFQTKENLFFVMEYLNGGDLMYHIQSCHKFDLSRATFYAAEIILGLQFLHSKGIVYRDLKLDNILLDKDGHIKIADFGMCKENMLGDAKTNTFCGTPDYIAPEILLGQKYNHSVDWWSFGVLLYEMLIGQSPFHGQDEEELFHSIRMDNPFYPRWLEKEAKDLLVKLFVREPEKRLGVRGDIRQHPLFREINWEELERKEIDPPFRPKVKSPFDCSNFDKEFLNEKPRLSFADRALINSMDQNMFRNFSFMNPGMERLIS

PBMC = test: Inhibition of IL-2 secretion from human PBMC cells stimulated with anti-CD3/CD28 measured after 24 hrs by bead-based FLISA; format: functional, cell-based
Homo sapiens [2] = species on record: Homo sapiens; test: Selectivity ratio Ki for recombinant full length PKC delta (unknown origin) to Ki for human recombinant full length His-tagged PKC theta
Homo sapiens [3] = species on record: Homo sapiens; test: Selectivity ratio Ki for recombinant full length PKC alpha (unknown origin) to Ki for human recombinant full length His-tagged PKC theta
[4] = target: Protein kinase C delta type (Homo sapiens, UniProt Q05655); test: Inhibition of recombinant full length PKC delta (unknown origin) using ERMRPRKR- QGSVRRRV peptide as substrate measured after 15 mins in presence of ATP by spectrophotometric analysis
Sequence of Protein kinase C delta type (Q05655 whole entry): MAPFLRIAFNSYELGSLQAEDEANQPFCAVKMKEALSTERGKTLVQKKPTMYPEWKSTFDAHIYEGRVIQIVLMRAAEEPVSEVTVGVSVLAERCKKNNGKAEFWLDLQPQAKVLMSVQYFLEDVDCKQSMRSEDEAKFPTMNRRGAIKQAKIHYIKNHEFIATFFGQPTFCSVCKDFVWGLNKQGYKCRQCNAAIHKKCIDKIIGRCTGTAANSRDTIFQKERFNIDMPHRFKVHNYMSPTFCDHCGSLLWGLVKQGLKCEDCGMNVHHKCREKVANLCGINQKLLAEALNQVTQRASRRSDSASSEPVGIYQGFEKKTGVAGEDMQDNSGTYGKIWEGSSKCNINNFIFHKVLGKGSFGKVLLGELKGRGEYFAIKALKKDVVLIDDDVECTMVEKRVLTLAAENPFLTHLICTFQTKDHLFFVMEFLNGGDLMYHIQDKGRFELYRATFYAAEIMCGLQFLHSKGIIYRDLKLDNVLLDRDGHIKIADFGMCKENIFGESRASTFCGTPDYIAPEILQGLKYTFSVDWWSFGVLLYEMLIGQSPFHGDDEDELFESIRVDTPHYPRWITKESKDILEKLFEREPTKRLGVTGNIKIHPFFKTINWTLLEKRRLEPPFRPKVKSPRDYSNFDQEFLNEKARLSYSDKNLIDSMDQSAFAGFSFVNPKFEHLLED

[5] = Stability of compound in human liver microsomes assessed as compound remaining at 30 mins; format: ADME, Microsome; settings: read-out: Stability
[6] = target: cAMP-dependent protein kinase catalytic subunit alpha (Homo sapiens, UniProt P17612); test: Inhibition of protein kinase A (unknown origin) using Kemptide (LRRASLG) as substrate incubated for 15 mins in presence of ATP by spectrophotometric analysis
[7] = target: T1, Receptor-type tyrosine-protein kinase FLT3 (Homo sapiens, UniProt P36888); test: Inhibition of FLT3 (unknown origin) using polyE4Y peptide as substrate incubated for 60 mins in presence of [33P] gammaATP by microbeta liquid scintillation counter
T1 sequence (P36888 whole entry): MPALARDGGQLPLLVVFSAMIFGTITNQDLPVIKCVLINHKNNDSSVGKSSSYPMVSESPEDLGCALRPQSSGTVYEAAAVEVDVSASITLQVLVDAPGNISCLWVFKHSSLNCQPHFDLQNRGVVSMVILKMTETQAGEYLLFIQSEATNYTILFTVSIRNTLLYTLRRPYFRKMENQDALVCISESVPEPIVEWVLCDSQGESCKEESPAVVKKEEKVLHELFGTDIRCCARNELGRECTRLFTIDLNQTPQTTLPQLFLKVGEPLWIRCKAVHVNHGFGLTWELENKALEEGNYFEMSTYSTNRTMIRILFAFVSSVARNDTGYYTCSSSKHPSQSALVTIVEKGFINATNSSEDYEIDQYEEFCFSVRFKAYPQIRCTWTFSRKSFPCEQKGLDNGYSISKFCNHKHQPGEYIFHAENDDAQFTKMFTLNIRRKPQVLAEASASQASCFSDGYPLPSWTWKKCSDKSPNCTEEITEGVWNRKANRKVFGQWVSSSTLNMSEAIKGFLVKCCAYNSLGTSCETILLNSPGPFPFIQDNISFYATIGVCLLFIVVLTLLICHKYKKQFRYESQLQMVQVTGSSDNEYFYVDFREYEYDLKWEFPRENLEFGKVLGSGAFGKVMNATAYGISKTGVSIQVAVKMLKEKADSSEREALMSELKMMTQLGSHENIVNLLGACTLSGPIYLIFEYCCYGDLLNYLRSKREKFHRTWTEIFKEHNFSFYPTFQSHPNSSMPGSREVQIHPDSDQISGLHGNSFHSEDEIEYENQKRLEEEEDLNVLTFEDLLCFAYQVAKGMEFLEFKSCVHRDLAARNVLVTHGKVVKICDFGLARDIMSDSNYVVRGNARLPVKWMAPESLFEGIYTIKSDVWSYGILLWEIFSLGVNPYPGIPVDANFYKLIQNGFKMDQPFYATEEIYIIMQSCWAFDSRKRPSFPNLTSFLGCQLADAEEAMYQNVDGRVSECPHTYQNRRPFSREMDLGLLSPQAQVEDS

[8] = target: Voltage-gated inwardly rectifying potassium channel KCNH2 (Homo sapiens, UniProt Q12809); test: Inhibition of human ERG
Sequence of Voltage-gated inwardly rectifying potassium channel KCNH2 (Q12809 whole entry): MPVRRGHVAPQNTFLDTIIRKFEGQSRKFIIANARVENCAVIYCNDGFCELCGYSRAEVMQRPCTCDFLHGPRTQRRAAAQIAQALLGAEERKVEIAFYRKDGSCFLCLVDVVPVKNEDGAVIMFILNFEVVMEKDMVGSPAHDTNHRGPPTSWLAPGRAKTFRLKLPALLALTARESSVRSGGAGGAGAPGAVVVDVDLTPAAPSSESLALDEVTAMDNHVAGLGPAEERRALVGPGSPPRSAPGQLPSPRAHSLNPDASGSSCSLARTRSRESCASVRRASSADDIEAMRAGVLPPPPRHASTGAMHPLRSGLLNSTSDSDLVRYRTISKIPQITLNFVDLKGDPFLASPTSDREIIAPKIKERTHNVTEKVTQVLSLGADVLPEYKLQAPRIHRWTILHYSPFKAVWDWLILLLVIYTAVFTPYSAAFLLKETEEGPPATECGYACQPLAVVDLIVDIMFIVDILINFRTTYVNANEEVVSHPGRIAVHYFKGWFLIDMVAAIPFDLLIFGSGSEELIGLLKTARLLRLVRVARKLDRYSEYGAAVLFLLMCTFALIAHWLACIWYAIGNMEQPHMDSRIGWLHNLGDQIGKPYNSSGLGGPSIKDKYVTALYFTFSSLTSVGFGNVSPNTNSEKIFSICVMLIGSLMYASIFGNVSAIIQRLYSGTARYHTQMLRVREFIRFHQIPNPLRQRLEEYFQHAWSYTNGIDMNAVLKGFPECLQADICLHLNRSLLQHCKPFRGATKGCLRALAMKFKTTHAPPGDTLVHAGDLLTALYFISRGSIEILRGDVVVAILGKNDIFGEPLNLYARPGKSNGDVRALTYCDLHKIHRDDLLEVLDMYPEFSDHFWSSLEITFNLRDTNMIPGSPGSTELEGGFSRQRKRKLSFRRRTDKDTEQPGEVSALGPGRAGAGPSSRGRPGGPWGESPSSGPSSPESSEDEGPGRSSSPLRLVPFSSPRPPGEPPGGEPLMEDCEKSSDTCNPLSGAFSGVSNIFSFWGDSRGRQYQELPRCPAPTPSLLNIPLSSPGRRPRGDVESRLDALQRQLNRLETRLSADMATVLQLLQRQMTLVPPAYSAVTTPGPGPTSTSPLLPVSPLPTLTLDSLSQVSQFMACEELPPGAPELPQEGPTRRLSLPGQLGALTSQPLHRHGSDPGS

[9] = Stability of compound in rat liver microsomes assessed as compound remaining at 30 mins; format: ADME, Microsome; settings: read-out: Stability
HFL1 = test: Cytotoxicity against human HFL1 cells assessed as growth inhibition measured after 48 hrs by 3H-thymidine incorporation assay; format: cell-based
[10] = target: Protein kinase C alpha type (Homo sapiens, UniProt P17252); test: Inhibition of recombinant full length PKC alpha (unknown origin) using RRRRRKGSFKRKA peptide as substrate measured after 15 mins in presence of ATP by spectrophotometric analysis
[11] = Lipophilicity, logD of compound; format: physicochemical; settings: octanol/water
[12] = Permeability across apical to basolateral side in human Caco2 cells measured at 120 mins by LC-MS/MS analysis; format: ADME, cell-based; settings: Caco-2, read-out: permeability
[13] = Half-life in iv dosed rat; format: ADME, organism-based; settings: in vivo
[14] = target: Rho-associated protein kinase (Homo sapiens, UniProt O75116+Q13464); test: Inhibition of ROCK (unknown origin) using Myelin Basic Protein as substrate incubated for 60 mins in presence of [33P] gammaATP by microbeta liquid scintillation counter; format: protein assay
[15] = Volume of distribution at steady state in iv dosed rat; format: ADME, organism-based; settings: in vivo, read-out: Vdss
[16] = target: Tyrosine-protein kinase JAK2 (Homo sapiens, UniProt O60674); test: Inhibition of JAK2 (unknown origin) using polyE4Y peptide as substrate incubated for 60 mins in presence of [33P] gammaATP by microbeta liquid scintillation counter
Sequence of Tyrosine-protein kinase JAK2 (O60674 whole entry): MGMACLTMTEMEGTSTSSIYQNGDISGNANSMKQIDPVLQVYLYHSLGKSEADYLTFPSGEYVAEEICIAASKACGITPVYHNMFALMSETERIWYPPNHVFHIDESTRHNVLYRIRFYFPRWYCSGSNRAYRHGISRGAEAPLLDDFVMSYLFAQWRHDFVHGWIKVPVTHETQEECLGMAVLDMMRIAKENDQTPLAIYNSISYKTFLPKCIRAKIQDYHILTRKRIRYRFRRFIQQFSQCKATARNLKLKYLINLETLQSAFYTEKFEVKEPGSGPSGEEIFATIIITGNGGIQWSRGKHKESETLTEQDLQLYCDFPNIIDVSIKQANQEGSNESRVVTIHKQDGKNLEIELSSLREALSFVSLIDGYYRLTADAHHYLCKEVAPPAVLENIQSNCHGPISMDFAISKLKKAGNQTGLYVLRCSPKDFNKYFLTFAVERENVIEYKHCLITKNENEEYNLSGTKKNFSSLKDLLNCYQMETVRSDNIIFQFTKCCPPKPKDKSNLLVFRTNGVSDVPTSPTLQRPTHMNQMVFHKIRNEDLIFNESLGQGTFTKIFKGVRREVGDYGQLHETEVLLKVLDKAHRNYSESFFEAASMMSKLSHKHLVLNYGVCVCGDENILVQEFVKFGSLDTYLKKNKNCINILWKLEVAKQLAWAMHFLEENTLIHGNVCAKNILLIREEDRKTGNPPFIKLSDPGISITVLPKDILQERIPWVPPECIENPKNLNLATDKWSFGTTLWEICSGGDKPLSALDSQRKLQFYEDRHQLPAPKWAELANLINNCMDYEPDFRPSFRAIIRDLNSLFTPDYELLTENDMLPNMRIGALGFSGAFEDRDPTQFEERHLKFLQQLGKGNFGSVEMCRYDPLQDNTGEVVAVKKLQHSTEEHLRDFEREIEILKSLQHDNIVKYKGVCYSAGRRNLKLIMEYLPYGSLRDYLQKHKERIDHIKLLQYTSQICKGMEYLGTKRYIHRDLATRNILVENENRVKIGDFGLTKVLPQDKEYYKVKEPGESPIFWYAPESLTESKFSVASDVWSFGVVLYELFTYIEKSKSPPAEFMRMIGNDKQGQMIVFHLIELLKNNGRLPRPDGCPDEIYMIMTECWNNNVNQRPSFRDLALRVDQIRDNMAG

[17] = Efflux ratio of permeability in human Caco2 cells by LC-MS/MS analysis; format: ADME, cell-based; settings: Caco-2
[18] = Unbound hepatic clearance in rat hepatocytes assessed per million cells; format: ADME, cell-based, Hepatocyte
[19] = Unbound hepatic clearance in human hepatocytes assessed per million cells; format: ADME, cell-based, Hepatocyte
[20] = Clearance in iv dosed rat; format: ADME, organism-based; settings: in vivo
[21] = Dissociation constant, pKa of compound; format: physicochemical

Structure (SMILES) | Ki [1] [nM] | IC50 (PBMC) [nM] | Ratio Ki (Homo sapiens [2]) | Ratio Ki (Homo sapiens [3]) | other results
NCC1(c2cccc(-c3ccnc4[nH]ncc34)c2)CCCC1 | 22 | 350 | 18 | 28 | –
NCC1(c2cccc(-c3ccnc4[nH]nc(C(F)(F)F)c34)c2)CCOCC1 | 9 | 130 | – | – | Ki [4]: 184 nM; remaining at 0.5 h [5]: 96%; Ki [6]: 30 nM; Ki [7]: 46 nM; IC50 [8]: > 10000 nM; remaining at 0.5 h [9]: 65%; IC50 (HFL1): 3300 nM; Ki [10]: 468 nM
CCc1cc(-c2ccnc3[nH]ncc23)cc(C(C)(CC)CN)c1 (centres undefined) | 14 | 250 | 39 | – | –
CCC(C)(C#N)c1cccc(-c2ccnc3[nH]ncc23)c1 (centres undefined) | 72 | 2700 | – | – | –
CCC(C)(CN)c1cccc(-c2ccnc3[nH]nc(C)c23)c1 (centres undefined) | < 1 | 100 | > 16 | – | –
CCC(C)(CN)c1cc(C)cc(-c2ccnc3[nH]ncc23)c1 (centres undefined) | 5 | 260 | 24 | – | –
NCC1(c2cccc(-c3ccnc4[nH]ncc34)c2)CCC1 | 17 | 300 | 18 | 41 | –
CC(C)(C#N)c1cccc(-c2ccnc3[nH]ncc23)n1 | 14 | – | – | – | Ki [4]: 240 nM; logD [11]: 2.9; Papp A→B at 2 h [12]: 20.1 ×10⁻⁶ cm/s; half-life [13]: 2.5 h; Ki [14]: 210 nM; Vd [15]: 1.22 L/kg; Ki [16]: 86 nM; efflux ratio [17]: 0.95; CL free [18]: 24 µL/min; CL free [19]: 33 µL/min; clearance [20]: 22 mL/min/kg; Ki [10]: 465 nM
C#CCC(C)(CN)c1cccc(-c2ccnc3[nH]ncc23)c1 (centres undefined) | 0.2 | 20 | 36 | 149 | –
NCC1(c2cccc(-c3ccnc4[nH]ncc34)c2)CCCCC1 | 30 | 580 | 8 | 18 | –
NCC1(c2cccc(-c3ccnc4[nH]nc(C(F)(F)F)c34)c2)CCC1 | 2 | 90 | – | – | Ki [4]: 60 nM; remaining at 0.5 h [5]: 81%; pKa [21]: 8.8; IC50 [8]: 3000 nM; remaining at 0.5 h [9]: 88%; IC50 (HFL1): 1900 nM; Ki [10]: 57 nM
CCCc1cc(-c2ccnc3[nH]ncc23)cc(C(C)(CC)CN)c1 (centres undefined) | 32 | 200 | 39 | – | –
CCC(C)(CN)c1cccc(-c2ccnc3[nH]nc(C(F)(F)F)c23)c1 (centres undefined) | 0.4 | 10 | 25 | – | half-life [13]: 1.8 h; Vd [15]: 2.7 L/kg; clearance [20]: 45 mL/min/kg
NCC1(c2cccc(-c3ccnc4[nH]ncc34)c2)CCOCC1 | 9 | 550 | 111 | 93 | –
CCC(C)(CN)c1cccc(-c2ccnc3[nH]ncc23)c1 (centres undefined) | 3 | 170 | 13 to 24 | 37 | –
CCC(C)(CN)c1cccc(-c2ccnc3[nH]nc(Cl)c23)c1 (centres undefined) | 0.3 | 20 | 22 | – | –
CC(C)(C#N)c1cccc(-c2ccnc3[nH]ncc23)c1 | 28 | – | – | – | Ki [4]: 584 nM; Papp A→B at 2 h [12]: 36 ×10⁻⁶ cm/s; half-life [13]: 4.6 h; Ki [14]: 560 nM; Vd [15]: 0.94 L/kg; Ki [16]: 270 nM; efflux ratio [17]: 0.7; CL free [18]: 58 µL/min; CL free [19]: 172 µL/min; clearance [20]: 12 mL/min/kg
CC(C)(CN)c1cccc(-c2ccnc3[nH]ncc23)c1 | 12 | 330 | 16 | 50 | –
